“Also recorded” adds a separate entry of the source.
Tested on: human PBMCs
Experiment: Human PBMC cytokine response assay (IFN-γ and IFN-α in cell-free medium by ELISA), with or without cPLGA;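 for IFN-α (pg/ml) mean: 20 µg/mL compound for 24 hours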;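 for IFN-γ (pg/ml) mean: 20 µg/mL compound for 24 hours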
Type: cell-based
Conditions: for immunomodulatory activity (IFN-γ / IFN-α secretion), in words: used alone (no cPLGA)
[1] = Table 25, mean of donors 28250-28253
[2] = Table 24, mean of donors 28234-28237
[3] = mean of donors 110, 112, 119, 120, Table 14
[4] = mean of donors 28218-28221, 20 μg/ml, 24 h
[5] = mean of donors 28185-28188, Table 15

Substance: HEG-5′-TCGTCG-3′-HEG-5′-ACGTTCG-3′-HEG-5′-AGATGAT-3′-TEG (phosphodiester linkages) [Compound C-31]
- IFN-α (Table 9, donor 28089): 158 pg/mL
- IFN-γ (Table 9, donor 28089): 0 pg/mL
- IFN-α (Table 9, donor 28090): 26 pg/mL
- IFN-γ (Table 9, donor 28090): 0 pg/mL
- IFN-α (Table 9, donor 28098): 62 pg/mL
- IFN-γ (Table 9, donor 28098): 0 pg/mL
- IFN-α (Table 9, donor 28099): 29 pg/mL
- IFN-γ (Table 9, donor 28099): 2 pg/mL
- IFN-α mean (Table 9, mean of donors): 69 pg/mL
- IFN-γ mean (Table 9, mean of donors): 0 pg/mL
- activity when formulated with cPLGA, in words: good activity when formulated with cPLGA
- immunomodulatory activity (IFN-γ / IFN-α secretion), in words: inactive as a CIC alone

Substance: 5′-TCGAGAT-3′ [Compound P-13, reference compound]
- IFN-a (Table 25, donor 28250): 16 pg/mL
- IFN-g (Table 25, donor 28250, polynucleotides/spacers at amounts equivalent to the CIC, spacers alone 9 uM): 18 pg/mL
- IFN-a (Table 25, donor 28251): 16 pg/mL
- IFN-g (Table 25, donor 28251): 13 pg/mL
- IFN-a (Table 25, donor 28252): 16 pg/mL
- IFN-g (Table 25, donor 28252): 22 pg/mL
- IFN-a (Table 25, donor 28253): 16 pg/mL
- IFN-g (Table 25, donor 28253): 1 pg/mL
- IFN-a mean [1]: 16 pg/mL
- IFN-g mean [1]: 14 pg/mL

Substance: (5′-TCGTCGA-3′-HEG)2-glycerol-HEG-5′-AACGTTC-3′-HEG-5′-TCGACGT-3′ [Compound C-100]
- IFN-α (Table 24, donor 28234): 16 pg/mL
- IFN-γ (Table 24, donor 28234): 27 pg/mL
- IFN-α (Table 24, donor 28235): 16 pg/mL
- IFN-γ (Table 24, donor 28235): 183 pg/mL
- IFN-α (Table 24, donor 28236): 398 pg/mL
- IFN-γ (Table 24, donor 28236): 490 pg/mL
- IFN-α (Table 24, donor 28237): 193 pg/mL
- IFN-γ (Table 24, donor 28237): 1907 pg/mL
- IFN-α mean [2]: 156 pg/mL
- IFN-γ mean [2]: 652 pg/mL

Substance: 5′-CGTTCGA-3′-HEG-5′-CGTTCGA-3′-HEG-5′-CGTTCGA-3′ [Compound C-52]
- IFN-α (Table 10, donor 28042): 0 pg/mL
- IFN-γ (Table 10, donor 28042): 238 pg/mL
- IFN-α (Table 10, donor 28043): 3 pg/mL
- IFN-γ (Table 10, donor 28043): 214 pg/mL
- IFN-α (Table 10, donor 28044): 35 pg/mL
- IFN-γ (Table 10, donor 28044): 212 pg/mL
- IFN-α (Table 10, donor 28045): 48 pg/mL
- IFN-γ (Table 10, donor 28045): 28 pg/mL
- IFN-α mean (Table 10, mean of donors): 22 pg/mL
- IFN-γ mean (Table 10, mean of donors): 173 pg/mL
- IFN-α (donor 110, Table 14): 2 pg/mL
- IFN-γ (donor 110, Table 14): 472 pg/mL
- IFN-α (donor 112, Table 14): 2 pg/mL
- IFN-γ (donor 112, Table 14): 48 pg/mL
- IFN-α (donor 119, Table 14): 292 pg/mL
- IFN-γ (donor 119, Table 14): 40 pg/mL
- IFN-α (donor 120, Table 14): 2 pg/mL
- IFN-γ (donor 120, Table 14): 28 pg/mL
- IFN-α (pg/ml) mean [3]: 75 pg/mL
- IFN-γ (pg/ml) mean [3]: 147 pg/mL

Substance: 5′-TCGTCG-3′-HEG-5′-ACGTTCG-3′-HEG-5′-AGATGAT-3′-TEG [Compound C-29]
- IFN-α (Table 9, donor 28089): 75 pg/mL
- IFN-γ (Table 9, donor 28089): 63 pg/mL
- IFN-α (Table 9, donor 28090): 92 pg/mL
- IFN-γ (Table 9, donor 28090): 50 pg/mL
- IFN-α (Table 9, donor 28098): 359 pg/mL
- IFN-γ (Table 9, donor 28098): 150 pg/mL
- IFN-α (Table 9, donor 28099): 332 pg/mL
- IFN-γ (Table 9, donor 28099): 177 pg/mL
- IFN-α mean (Table 9, mean of donors): 214 pg/mL
- IFN-γ mean (Table 9, mean of donors): 110 pg/mL

Substance: 5′-GsGs-3′-C3-5′-TCGTGC-3′-C3-5′-ATCGAT-3′-C3-5′-GCACGA-3′-C3-5′-GGsGsGsGsG-3′ (s = phosphorothioate linkages, otherwise linkages are phosphodiester) [Compound C-85]
- IFN-α (Table 11, donor 28042): 0 pg/mL
- IFN-γ (Table 11, donor 28042): 17 pg/mL
- IFN-α (Table 11, donor 28043): 0 pg/mL
- IFN-γ (Table 11, donor 28043): 13 pg/mL
- IFN-α (Table 11, donor 28044): 28 pg/mL
- IFN-γ (Table 11, donor 28044): 315 pg/mL
- IFN-α (Table 11, donor 28045): 24 pg/mL
- IFN-γ (Table 11, donor 28045): 134 pg/mL
- IFN-α mean (Table 11, mean of donors): 13 pg/mL
- IFN-γ mean (Table 11, mean of donors): 120 pg/mL

Substance: 5′-TCGT-3′-HEG-5′-TCGT-3′-HEG-5′-TCGT-3′-HEG-5′-TCGT-3′-HEG-5′-TCGT-3′ [Compound C-44]
- IFN-α (Table 10, donor 28042): 0 pg/mL
- IFN-γ (Table 10, donor 28042): 238 pg/mL
- IFN-α (Table 10, donor 28043): 12 pg/mL
- IFN-γ (Table 10, donor 28043): 359 pg/mL
- IFN-α (Table 10, donor 28044): 60 pg/mL
- IFN-γ (Table 10, donor 28044): 484 pg/mL
- IFN-α (Table 10, donor 28045): 1 pg/mL
- IFN-γ (Table 10, donor 28045): 51 pg/mL
- IFN-α mean (Table 10, mean of donors): 18 pg/mL
- IFN-γ mean (Table 10, mean of donors): 283 pg/mL
- activity when formulated with cPLGA, in words: induced considerable IFN-γ and IFN-α when formulated with cPLGA
- IFN-γ induction, in words (used alone): induce IFN-γ when used alone

Substance: 5′-TCG-3′-HEG-5′-TCG-3′-HEG-5′-TCG-3′-HEG-5′-TCG-3′-HEG-5′-TCG-3′-HEG-5′-TCG-3′ [Compound C-32]
- IFN-α (Table 9, donor 28089): 285 pg/mL
- IFN-γ (Table 9, donor 28089): 0 pg/mL
- IFN-α (Table 9, donor 28090): 31 pg/mL
- IFN-γ (Table 9, donor 28090): 5 pg/mL
- IFN-α (Table 9, donor 28098): 46 pg/mL
- IFN-γ (Table 9, donor 28098): 11 pg/mL
- IFN-α (Table 9, donor 28099): 59 pg/mL
- IFN-γ (Table 9, donor 28099): 35 pg/mL
- IFN-α mean (Table 9, mean of donors): 106 pg/mL
- IFN-γ mean (Table 9, mean of donors): 13 pg/mL
- IFN-α (Table 10, donor 28042): 0 pg/mL
- IFN-γ (Table 10, donor 28042): 91 pg/mL
- IFN-α (Table 10, donor 28043): 0 pg/mL
- IFN-γ (Table 10, donor 28043): 19 pg/mL
- IFN-α (Table 10, donor 28044): 8 pg/mL
- IFN-γ (Table 10, donor 28044): 78 pg/mL
- IFN-α (Table 10, donor 28045): 0 pg/mL
- IFN-γ (Table 10, donor 28045): 17 pg/mL
- IFN-α mean (Table 10, mean of donors): 2 pg/mL
- IFN-γ mean (Table 10, mean of donors): 51 pg/mL
- activity when formulated with cPLGA, in words: more activity when formulated with cPLGA; also recorded: induced considerable IFN-γ and IFN-α when formulated with cPLGA
- immunomodulatory activity (IFN-γ / IFN-α secretion), in words: had activity when used alone

Substance: 5′-GsGsGsGs-3′-C3-5′-ATCGAT-3′-C3-5′-TGATGCATCA-3′-C3-5′-ATCGAT-3′-C3-5′-GsGsGsGsGsG-3′ (s = phosphorothioate linkages, otherwise linkages are phosphodiester) (TGATGCATCA is SEQ ID NO: 105) (listed as DNA, chemistry not fully specified) [Compound C-87]
- IFN-a (pg/ml) 28218 (donor 28218, 20 μg/ml, 24 h): 3075 pg/mL
- IFN-g (pg/ml) 28218 (donor 28218, 20 μg/ml, 24 h): 83 pg/mL
- IFN-a (pg/ml) 28219 (donor 28219, 20 μg/ml, 24 h): 32 pg/mL
- IFN-g (pg/ml) 28219 (donor 28219, 20 μg/ml, 24 h): 24 pg/mL
- IFN-a (pg/ml) 28220 (donor 28220, 20 μg/ml, 24 h): 4269 pg/mL
- IFN-g (pg/ml) 28220 (donor 28220, 20 μg/ml, 24 h): 38 pg/mL
- IFN-a (pg/ml) 28221 (donor 28221, 20 μg/ml, 24 h): 265 pg/mL
- IFN-g (pg/ml) 28221 (donor 28221, 20 μg/ml, 24 h): 977 pg/mL
- IFN-a (pg/ml) mean [4]: 1910 pg/mL
- IFN-g (pg/ml) mean [4]: 281 pg/mL
- IFN-α induction, in words (used alone): remarkable induction of IFN-α

Substance: Starburst Dendrimer ® -(5′-TGACTGTGAACGTTCGAGATGA-3′)x (X range = 3-16) (SEQ ID NO: 2) (See Ex. 24) [Compound C-102]
- IFN-a (donor 28185, Table 15): 1880 pg/mL
- IFN-g (donor 28185, Table 15): 158 pg/mL
- IFN-a (donor 28186, Table 15): 187 pg/mL
- IFN-g (donor 28186, Table 15): 43 pg/mL
- IFN-a (donor 28187, Table 15): 109 pg/mL
- IFN-g (donor 28187, Table 15): 101 pg/mL
- IFN-a (donor 28188, Table 15): 4 pg/mL
- IFN-g (donor 28188, Table 15): 6 pg/mL
- IFN-a (pg/ml) mean [5]: 545 pg/mL
- IFN-g (pg/ml) mean [5]: 77 pg/mL
- IFN-a (pg/ml) ×2 (mean ×2, Table 15): 1090 pg/mL
- IFN-g (pg/ml) ×4 (mean ×4, Table 15): 307 pg/mL
- IFN-α induction, in words (used alone): significantly more IFN-α activity than the P-6 sequence alone
